The values that follow come from ChEMBL document CHEMBL4507273 (2021).

The target of assay [1] is T1, D(2) dopamine receptor (Homo sapiens, UniProt P14416). Description: GPCRScan assay: inhibition of D2. More on the design: radioligand conc. used [nm] 0.4 – 1.0, parental cells stable fibroblast.
For a further assay, the target named is Mu-type opioid receptor (Homo sapiens, UniProt P35372). Description: GPCRScan assay: inhibition of MOR. More on the design: radioligand conc. used [nm] 1.0 – 2.0, parental cells stable HEK.
Sequence of Mu-type opioid receptor (P35372 whole entry): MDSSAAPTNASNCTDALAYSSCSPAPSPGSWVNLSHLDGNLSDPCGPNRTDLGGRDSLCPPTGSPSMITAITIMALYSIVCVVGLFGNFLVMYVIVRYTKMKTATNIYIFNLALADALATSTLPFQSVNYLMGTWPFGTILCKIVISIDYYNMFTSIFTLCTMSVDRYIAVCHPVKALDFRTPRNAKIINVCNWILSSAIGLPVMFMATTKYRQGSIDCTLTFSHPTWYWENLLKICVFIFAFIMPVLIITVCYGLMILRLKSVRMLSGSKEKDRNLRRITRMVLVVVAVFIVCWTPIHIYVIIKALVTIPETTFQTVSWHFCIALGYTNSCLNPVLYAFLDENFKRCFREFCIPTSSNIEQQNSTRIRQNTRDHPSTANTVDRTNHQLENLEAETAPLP
The target of a further assay is Histamine H4 receptor (Homo sapiens, UniProt Q9H3N8). Description: GPCRScan assay: inhibition of H4. The arrangement: radioligand conc. used [nm] 1.0 – 5.0, parental cells HEK T.
Another assay addresses Histamine H1 receptor (Homo sapiens, UniProt P35367). In words: GPCRScan assay: inhibition of H1. The arrangement: radioligand conc. used [nm] 0.6 – 2.0, parental cells stable HEK.
Assay [2] addresses Sodium-dependent serotonin transporter (Homo sapiens, UniProt P31645). In words: GPCRScan assay: inhibition of SERT. More on the design: radioligand conc. used [nm] 1.5 – 2.0, parental cells stable HEK.
Assay [3] has as its target Delta-type opioid receptor (Homo sapiens) (UniProt P41143). Conditions: Compound concentration 10.0 uM.
In assay [4] the target is PAS domain-containing serine/threonine-protein kinase (Homo sapiens) (UniProt Q96RG2). In words: PASK(h) Eurofins Kinase panel. Conditions: Compound concentration 1.0 uM.
Sequence of PAS domain-containing serine/threonine-protein kinase (Homo sapiens) (Q96RG2 whole entry, the tested form may be a part): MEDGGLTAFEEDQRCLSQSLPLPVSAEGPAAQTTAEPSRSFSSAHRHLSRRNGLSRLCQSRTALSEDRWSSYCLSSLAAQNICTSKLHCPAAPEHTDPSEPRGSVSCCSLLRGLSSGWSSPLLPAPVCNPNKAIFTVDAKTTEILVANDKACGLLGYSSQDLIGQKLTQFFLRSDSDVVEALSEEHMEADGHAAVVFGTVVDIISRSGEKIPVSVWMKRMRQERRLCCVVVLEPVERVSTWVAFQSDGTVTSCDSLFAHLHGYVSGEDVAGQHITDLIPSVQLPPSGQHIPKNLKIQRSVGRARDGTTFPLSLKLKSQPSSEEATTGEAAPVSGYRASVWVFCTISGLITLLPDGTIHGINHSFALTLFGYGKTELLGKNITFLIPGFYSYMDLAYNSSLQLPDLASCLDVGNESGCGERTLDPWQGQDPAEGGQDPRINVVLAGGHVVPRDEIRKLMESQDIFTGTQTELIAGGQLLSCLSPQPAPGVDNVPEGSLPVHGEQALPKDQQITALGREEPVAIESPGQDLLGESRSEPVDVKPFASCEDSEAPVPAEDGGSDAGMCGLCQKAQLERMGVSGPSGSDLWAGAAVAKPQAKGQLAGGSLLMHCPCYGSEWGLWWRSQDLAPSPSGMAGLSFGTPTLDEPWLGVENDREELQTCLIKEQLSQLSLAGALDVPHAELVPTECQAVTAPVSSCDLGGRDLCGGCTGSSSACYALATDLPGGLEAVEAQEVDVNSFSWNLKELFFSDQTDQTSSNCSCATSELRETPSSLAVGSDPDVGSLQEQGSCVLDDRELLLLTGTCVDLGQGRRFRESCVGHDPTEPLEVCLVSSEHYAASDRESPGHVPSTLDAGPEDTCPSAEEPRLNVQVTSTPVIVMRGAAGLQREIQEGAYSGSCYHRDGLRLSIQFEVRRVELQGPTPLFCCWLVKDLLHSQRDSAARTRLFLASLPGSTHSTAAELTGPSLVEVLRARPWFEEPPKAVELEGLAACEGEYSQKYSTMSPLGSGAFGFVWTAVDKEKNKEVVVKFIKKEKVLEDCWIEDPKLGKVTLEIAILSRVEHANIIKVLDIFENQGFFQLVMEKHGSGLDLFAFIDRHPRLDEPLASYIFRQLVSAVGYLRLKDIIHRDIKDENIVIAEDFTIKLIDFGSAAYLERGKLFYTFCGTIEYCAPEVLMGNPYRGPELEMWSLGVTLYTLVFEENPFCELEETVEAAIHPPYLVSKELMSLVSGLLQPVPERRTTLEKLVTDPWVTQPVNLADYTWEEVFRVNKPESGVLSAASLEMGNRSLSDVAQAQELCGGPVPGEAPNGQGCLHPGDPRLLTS
The target in assay [5] is T1, D(2) dopamine receptor. Conditions: Compound concentration 10.0 uM.
Assay [6] addresses Serine/threonine-protein kinase PAK 6 (Homo sapiens) (UniProt Q9NQU5). In words: PAK6(h) Eurofins Kinase panel. Conditions: Compound concentration 1.0 uM.
The target of the next assay is D(3) dopamine receptor (Homo sapiens, UniProt P35462). Particulars: Compound concentration 10.0 uM.
The target of assay [7] is Tau-tubulin kinase 1 (Homo sapiens) (UniProt Q5TCY1). Description: TTBK1(h) Eurofins Kinase panel. Particulars: Compound concentration 1.0 uM.
Sequence of Tau-tubulin kinase 1 (Homo sapiens) (Q5TCY1 whole entry): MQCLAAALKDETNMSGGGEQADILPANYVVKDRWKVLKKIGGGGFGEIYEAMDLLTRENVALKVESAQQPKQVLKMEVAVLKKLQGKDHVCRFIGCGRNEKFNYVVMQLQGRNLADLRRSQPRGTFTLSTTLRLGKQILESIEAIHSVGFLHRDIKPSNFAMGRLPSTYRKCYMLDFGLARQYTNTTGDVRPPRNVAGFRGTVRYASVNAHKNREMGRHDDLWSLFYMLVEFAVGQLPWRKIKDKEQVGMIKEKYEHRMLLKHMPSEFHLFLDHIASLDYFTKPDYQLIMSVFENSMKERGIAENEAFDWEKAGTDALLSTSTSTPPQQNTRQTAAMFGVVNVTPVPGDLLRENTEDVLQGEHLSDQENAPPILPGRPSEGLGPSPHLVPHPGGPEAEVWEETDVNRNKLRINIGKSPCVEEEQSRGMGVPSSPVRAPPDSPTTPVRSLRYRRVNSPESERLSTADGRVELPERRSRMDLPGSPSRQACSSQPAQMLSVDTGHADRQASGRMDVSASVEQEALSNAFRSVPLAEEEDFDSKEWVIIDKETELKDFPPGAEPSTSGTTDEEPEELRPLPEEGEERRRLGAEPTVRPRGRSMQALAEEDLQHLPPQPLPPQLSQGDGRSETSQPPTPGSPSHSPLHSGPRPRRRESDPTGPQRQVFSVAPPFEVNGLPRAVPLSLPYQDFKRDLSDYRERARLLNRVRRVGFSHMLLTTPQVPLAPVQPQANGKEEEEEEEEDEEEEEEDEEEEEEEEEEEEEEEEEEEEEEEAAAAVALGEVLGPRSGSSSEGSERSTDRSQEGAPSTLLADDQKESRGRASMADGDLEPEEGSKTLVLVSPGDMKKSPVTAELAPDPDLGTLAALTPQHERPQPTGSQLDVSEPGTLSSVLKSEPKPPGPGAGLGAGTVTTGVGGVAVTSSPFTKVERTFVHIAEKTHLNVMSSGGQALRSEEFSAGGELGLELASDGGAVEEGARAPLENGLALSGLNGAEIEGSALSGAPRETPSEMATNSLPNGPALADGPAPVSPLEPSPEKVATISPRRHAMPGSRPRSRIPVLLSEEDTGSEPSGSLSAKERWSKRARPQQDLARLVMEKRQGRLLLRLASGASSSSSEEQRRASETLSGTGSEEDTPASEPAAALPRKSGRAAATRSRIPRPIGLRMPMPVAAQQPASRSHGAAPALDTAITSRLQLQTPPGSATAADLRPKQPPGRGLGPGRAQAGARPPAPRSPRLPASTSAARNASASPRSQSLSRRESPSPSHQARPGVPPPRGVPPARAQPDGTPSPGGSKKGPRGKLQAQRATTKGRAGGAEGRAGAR
For assay [8], the target named is Serine/threonine-protein kinase 26 (Homo sapiens) (UniProt Q9P289). In words: MST4(h) Eurofins Kinase panel. Particulars: Compound concentration 1.0 uM.
Sequence of Serine/threonine-protein kinase 26 (Homo sapiens) (Q9P289 2-416 limits assumed): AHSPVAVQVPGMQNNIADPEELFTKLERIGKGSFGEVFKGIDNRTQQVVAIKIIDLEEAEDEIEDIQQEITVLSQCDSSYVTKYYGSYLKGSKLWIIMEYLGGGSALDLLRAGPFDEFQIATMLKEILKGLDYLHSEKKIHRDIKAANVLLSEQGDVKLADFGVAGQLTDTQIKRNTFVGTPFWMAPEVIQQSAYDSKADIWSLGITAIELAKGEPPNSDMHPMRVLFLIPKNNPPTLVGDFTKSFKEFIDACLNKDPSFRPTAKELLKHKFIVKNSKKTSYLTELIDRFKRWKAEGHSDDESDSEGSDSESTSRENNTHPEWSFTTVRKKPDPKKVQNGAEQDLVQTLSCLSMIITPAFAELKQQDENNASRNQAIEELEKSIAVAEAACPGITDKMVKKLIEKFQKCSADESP
The next assay addresses Histamine H2 receptor (Homo sapiens, UniProt P25021). Particulars: Compound concentration 10.0 uM.
The species entered for another assay is Rattus norvegicus. Particulars: Compound concentration 10.0 uM.
In assay [9] the target is Tyrosine-protein kinase receptor UFO (Homo sapiens) (UniProt P30530). Description: Axl(h) Eurofins Kinase panel. Conditions: Compound concentration 1.0 uM.
The target of assay [10] is Sodium-dependent dopamine transporter (Homo sapiens, UniProt Q01959). Particulars: Compound concentration 10.0 uM.
Assay [11] addresses Kappa-type opioid receptor (Homo sapiens, UniProt P41145). Conditions: Compound concentration 10.0 uM.
Assay [12] deals with T2, Muscarinic acetylcholine receptor M1 (Homo sapiens) (UniProt P11229).
T2 sequence (whole entry): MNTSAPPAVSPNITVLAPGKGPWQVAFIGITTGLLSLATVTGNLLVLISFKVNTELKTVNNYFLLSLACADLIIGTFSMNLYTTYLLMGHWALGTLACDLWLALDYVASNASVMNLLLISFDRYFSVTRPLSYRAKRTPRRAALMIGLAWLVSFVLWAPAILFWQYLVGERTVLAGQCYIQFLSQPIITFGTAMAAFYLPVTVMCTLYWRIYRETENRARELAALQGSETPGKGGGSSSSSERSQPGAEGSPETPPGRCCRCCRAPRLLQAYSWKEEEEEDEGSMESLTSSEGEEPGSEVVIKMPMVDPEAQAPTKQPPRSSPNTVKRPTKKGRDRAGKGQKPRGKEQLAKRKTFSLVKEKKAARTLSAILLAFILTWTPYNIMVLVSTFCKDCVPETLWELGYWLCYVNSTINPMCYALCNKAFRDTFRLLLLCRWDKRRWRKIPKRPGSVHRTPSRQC
Conditions: Compound concentration 10.0 uM.

For another assay, the target named is D(1A) dopamine receptor (Homo sapiens, UniProt P21728). Conditions: Compound concentration 10.0 uM.
Sequence of D(1A) dopamine receptor (P21728 whole entry): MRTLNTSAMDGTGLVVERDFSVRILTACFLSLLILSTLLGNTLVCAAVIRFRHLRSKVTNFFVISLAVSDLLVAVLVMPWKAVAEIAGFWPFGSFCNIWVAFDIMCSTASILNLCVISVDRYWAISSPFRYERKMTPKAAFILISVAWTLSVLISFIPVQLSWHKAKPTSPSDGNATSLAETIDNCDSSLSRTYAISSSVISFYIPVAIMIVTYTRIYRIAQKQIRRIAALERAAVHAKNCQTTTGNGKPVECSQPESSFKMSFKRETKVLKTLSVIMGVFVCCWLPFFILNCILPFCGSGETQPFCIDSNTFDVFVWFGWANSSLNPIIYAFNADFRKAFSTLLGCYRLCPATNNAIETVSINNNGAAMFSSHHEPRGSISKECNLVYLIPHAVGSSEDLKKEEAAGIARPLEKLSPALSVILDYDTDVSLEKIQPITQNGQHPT
Assay [13] has as its target Eukaryotic translation initiation factor 2-alpha kinase 3 (Homo sapiens) (UniProt Q9NZJ5). In words: PEK(h) Eurofins Kinase panel. Conditions: Compound concentration 1.0 uM.
Assay [14] has as its target T3, Protein kinase C epsilon type (Homo sapiens) (UniProt Q02156).
T3 sequence (whole entry): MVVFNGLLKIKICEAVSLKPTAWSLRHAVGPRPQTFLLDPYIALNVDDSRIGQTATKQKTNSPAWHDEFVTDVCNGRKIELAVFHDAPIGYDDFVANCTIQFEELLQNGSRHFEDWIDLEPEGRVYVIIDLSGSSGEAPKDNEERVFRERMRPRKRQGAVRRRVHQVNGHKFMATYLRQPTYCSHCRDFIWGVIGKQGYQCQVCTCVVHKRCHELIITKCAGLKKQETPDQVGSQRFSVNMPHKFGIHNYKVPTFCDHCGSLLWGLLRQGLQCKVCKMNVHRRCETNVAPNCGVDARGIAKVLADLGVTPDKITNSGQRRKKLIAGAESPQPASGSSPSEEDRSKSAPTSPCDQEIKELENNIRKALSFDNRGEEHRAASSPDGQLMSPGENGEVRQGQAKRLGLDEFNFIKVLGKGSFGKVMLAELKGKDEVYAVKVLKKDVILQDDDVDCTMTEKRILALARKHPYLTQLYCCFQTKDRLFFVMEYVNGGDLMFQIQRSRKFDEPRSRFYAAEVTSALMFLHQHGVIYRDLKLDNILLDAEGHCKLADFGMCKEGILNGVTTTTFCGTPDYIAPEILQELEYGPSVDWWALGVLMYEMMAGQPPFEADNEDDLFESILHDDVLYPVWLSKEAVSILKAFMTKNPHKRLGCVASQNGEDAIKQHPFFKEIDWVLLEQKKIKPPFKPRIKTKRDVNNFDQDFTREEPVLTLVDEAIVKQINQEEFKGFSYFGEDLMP
In words: PKCepsilon(h) Eurofins Kinase panel. Conditions: Compound concentration 1.0 uM.

Assay [15] has as its target Dual specificity tyrosine-phosphorylation-regulated kinase 1A (Homo sapiens) (UniProt Q13627). Description: DYRK1A(h) Eurofins Kinase panel. Particulars: Compound concentration 1.0 uM.
Assay [16] deals with T4, Alpha-1A adrenergic receptor (Homo sapiens) (UniProt P35348).
T4 sequence (whole entry): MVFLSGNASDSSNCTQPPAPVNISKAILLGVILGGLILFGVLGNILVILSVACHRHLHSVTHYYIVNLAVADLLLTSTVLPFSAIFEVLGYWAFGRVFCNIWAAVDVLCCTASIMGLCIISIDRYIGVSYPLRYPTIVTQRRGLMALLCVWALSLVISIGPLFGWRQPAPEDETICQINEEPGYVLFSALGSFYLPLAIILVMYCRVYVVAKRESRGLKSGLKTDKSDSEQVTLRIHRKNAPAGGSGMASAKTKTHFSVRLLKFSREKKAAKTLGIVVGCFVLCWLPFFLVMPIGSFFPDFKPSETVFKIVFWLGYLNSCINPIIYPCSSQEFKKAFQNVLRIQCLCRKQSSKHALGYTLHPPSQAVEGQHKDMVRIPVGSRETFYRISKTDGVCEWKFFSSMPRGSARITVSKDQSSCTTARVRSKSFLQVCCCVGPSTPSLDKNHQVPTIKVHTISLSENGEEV
Particulars: Rattus norvegicus; Compound concentration 10.0 uM.

The target in assay [17] is T1, D(2) dopamine receptor. Particulars: Compound concentration 10.0 uM. The source holds these as a separate data set.

Molecules are shown by their SMILES.

T1 sequence (P14416 whole entry): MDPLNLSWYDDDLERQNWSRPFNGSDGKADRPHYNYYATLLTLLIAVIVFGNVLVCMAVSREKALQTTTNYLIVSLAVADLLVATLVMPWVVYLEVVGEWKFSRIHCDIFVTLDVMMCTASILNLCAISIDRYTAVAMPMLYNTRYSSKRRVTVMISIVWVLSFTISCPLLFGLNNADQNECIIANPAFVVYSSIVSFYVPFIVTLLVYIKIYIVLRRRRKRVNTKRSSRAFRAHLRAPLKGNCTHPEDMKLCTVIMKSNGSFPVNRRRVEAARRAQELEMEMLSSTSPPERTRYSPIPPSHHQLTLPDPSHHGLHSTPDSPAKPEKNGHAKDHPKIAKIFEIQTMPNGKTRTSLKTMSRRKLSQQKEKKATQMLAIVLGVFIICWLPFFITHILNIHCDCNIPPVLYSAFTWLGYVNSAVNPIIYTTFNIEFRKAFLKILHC
Sequence of Histamine H1 receptor (P35367 whole entry): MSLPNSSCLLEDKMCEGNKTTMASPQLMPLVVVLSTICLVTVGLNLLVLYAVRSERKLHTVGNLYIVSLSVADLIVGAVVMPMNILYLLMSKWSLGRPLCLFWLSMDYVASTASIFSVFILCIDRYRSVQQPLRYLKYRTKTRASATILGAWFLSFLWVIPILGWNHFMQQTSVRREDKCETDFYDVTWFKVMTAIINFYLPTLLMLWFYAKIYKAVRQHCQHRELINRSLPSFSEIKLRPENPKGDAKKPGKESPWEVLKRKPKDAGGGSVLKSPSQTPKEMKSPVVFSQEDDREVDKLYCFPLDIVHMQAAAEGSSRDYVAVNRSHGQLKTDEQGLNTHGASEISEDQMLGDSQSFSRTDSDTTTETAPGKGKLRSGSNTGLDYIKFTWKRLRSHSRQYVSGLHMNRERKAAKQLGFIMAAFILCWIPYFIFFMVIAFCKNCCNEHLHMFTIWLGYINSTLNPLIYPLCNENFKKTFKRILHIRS

For orientation: inhibition means the relative decrease from the control value, in per cent. As to `CNCc1ccccc1-c1csc([C@H](C)Nc2nc(C)nc3cc(OC)c(OC)cc23)c1` [BAY-294], the Ki on D(2) dopamine receptor [1] (read-out: Ki) is 2.33 µM; at D(2) dopamine receptor [1] (read-out: pKi (converted)), 2 µM; on Mu-type opioid receptor (read-out: Ki) it was 0.854 µM; on Mu-type opioid receptor (read-out: pKi (converted)), 0.759 µM; at Histamine H4 receptor, 1.89 µM; on Histamine H1 receptor (read-out: Ki), 1.37 µM. The figures for the Ki (at Histamine H1 receptor (read-out: pKi (converted)); in assay [2]) were 1.35 µM and 4.23 µM, respectively. Also, the inhibition in assay [3] was 10.5%.
With `CNCc1ccccc1-c1csc([C@@H](C)Nc2nc(C)nc3cc(OC)c(OC)cc23)c1` [BAY-293], the % residual kinase activity was 84% in assay [4]; 88% in [6]; 87% in [7]; 88% in [8]; 88% in assay [9]; 87% in assay [13]. Further, the % residual kinase activity in assay [14] is 88%; in [15] it was 68%. Moreover, the inhibition was 67% at D(2) dopamine receptor [5]; 88% on D(3) dopamine receptor; 99% on Histamine H2 receptor; 71% in the assay filed under Rattus norvegicus; 90% in [10]; 105% in assay [11]. In addition, the inhibition was 94% in assay [12], 85% at D(1A) dopamine receptor, 106% in assay [16] and 71% on D(2) dopamine receptor [17].
